Data on 1 compound can be found in patent US10870647B2, “Imidazopyridine derivative, method for preparing same, and pharmaceutical composition containing same as active ingredient for preventing or treating cancer” (DAEGU-GYEONGBUK MEDICAL INNOVATION FOUNDATION, priority 2016, dated 2020).

The assay has as its system STZ diabetes induced white mice. Nature of the assay: Diabetes (streptozotocin) induced white mice. The assay is classed as in vivo, SD rats. The settings on record: STZ + Example 11 (30 mg/kg), 8 weeks; Mean ± SE. The procedure:
Blood was collected with a heparinized syringe before sacrificing the experimental animals. HbA1c was measured by using a DCA2000 HbA1c reagent kit (SIEMENS Healthcare Diagnostics, Inc., Tarrytown, N.Y., USA) and blood sugar was measured by using a glucometer (OneTouch Ultra, Johnson & Johnson co., CA, USA). The blood sample obtained above was centrifuged at 3000 rpm at 4° C. for 15 minutes to obtain serum. Serum cystatin C was measured by using an ELISA kit (R&D Systems, Minneapolis, Minn., USA). […]
Male SD white mice at 6-7 weeks of age (Japan SLC Inc., Hamamatsu, Japan) were used. Streptozotocin (STZ, 60 mg/kg, intraperitoneally administered) was administered to the experimental animals to induce type I diabetes. The STZ non-treated control group was treated with sodium citrate buffer (sodium citrate 100 mM, citric acid 100 mM, pH 4.5). To investigate the therapeutic effect of the compound of example 11, the compound was orally administered to the experimental animals for 8 weeks from the beginning of diabetes induction. The effect was compared with that of losartan (1 mg/kg/d) that is an angiotensin receptor antagonist being used clinically as a drug to treat diabetic nephropathy. The diabetic control (treated with STZ alone) was administered with the solvent of Example 11, DMSO/Tween 70.DW (10:5:85).
Table 8 below presents the body weight, kidney weight, ratio of kidney to body weight, HbA1C, blood sugar and urine amount (volume) of the mice of each group, which were measured 8 weeks after the treatment of control (non-treated with STZ), STZ, STZ+compound of Example 11 (30 mg/kg) and STZ+losartan (1 mg/kg).

Consider `Cc1ccc(C(=O)Nc2cccc(C(F)(F)F)c2)cc1C#Cc1cnc2c(Nc3cnn(C4CCNCC4)c3)cccn12` [Example 11, 4-methyl-3-((8-((1-(piperidin-4-yl)-1H-pyrazol-4-yl)amino)imidazo[1,2-a]pyridin-3-yl)ethynyl)-N-(3-(trifluoromethyl)phenyl)benzamide], for which the HbA1C is given as 6.7 ± 0.2 %, the Kidney came to 1.6 ± 0.1 g, the Urine volume worked out at 93.0 ± 12.5 and the Weight worked out at 241 ± 16.0 g. Moreover, the blood sugar is 392 ± 33 mg/dL and the kidney/Weight ratio amounted to 0.7 ± 0.04.
